# Read-outs that look alike come from different tables or passages of the source.
# Assays:
# [1] = target: T1, ScSLAC (small laccase, SLAC) (Streptomyces coelicolor, UniProt Q9XAL8); assay: spectrophotometric oxidation, […] nm, Michaelis-Menten or substrate inhibition fit; assay type: biochemical; conditions: read-out: DMP; pH 8.0, 42 °C; 0.25-15 mM substrate
# T1 sequence (Q9XAL8 34-343): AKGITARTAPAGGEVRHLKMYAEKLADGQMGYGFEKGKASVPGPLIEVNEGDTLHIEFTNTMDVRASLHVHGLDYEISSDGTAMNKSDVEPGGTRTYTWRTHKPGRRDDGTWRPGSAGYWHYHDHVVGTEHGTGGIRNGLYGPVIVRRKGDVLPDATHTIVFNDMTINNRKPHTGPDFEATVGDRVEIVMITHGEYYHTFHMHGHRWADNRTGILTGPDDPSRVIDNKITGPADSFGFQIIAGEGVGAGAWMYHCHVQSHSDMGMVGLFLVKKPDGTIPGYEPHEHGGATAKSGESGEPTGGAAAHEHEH
# [2] = target: T1, ScSLAC (small laccase, SLAC); assay: as above; conditions: read-out: Pyrogallol; pH 8.5, 42 °C; 0.025-1 mM substrate
Km [1] [µM],Km [2] [µM],Compound
1100 ± 60,,"COc1cccc(OC)c1O [DMP, 2,6-dimethoxyphenol]"
,200 ± 60,Oc1cccc(O)c1O [Pyrogallol]
